Measured values: ChEMBL document CHEMBL5537137, “Design, synthesis and biological evaluation of biaryl amide derivatives against SARS-CoV-2 with dual-target mechanism” (Eur J Med Chem, 2024)

Assays:
[1] = test system: Human coronavirus OC43; experiment: microbe, parasite or virus in culture; conditions: Betacoronavirus 1, VR-1558, NCI-H460, 72 h
Description: Antiviral activity against HCoV-OC43 VR-1558 infected in human NCI-H460 cells assessed as inhibition of viral growth incubated for 72 hrs by CCK-8 assay

[2] = Cytotoxicity against human NCI-H460 cells incubated for 72 hrs by CCK-8 assay
[3] = in vitro; conditions: human, NCI-H460 cells
Description: Selectivity index, ratio of CC50 for cytotoxicity against human NCI-H460 cells to EC50 for antiviral activity against HCoV-OC43 VR-1558 infected in human NCI-H460 cells

[4] = Cytotoxicity against human Huh7.5 cells
[5] = biological target: Replicase polyprotein 1ab (Severe acute respiratory syndrome coronavirus 2, UniProt P0DTD1)
Description: Binding affinity to CM5 sensor chip immobilized SARS-CoV-2 3CL protease assessed as dissociation constant by SPR analysis

[6] = test system: Human coronavirus OC43; experiment: microbe, parasite or virus in culture; conditions: Betacoronavirus 1, A549, 96 h
Description: Antiviral activity against HCoV-OC43 infected in human A549 cells assessed as inhibition of viral growth incubated for 4 days

[7] = Cytotoxicity against human H9 cells
[8] = test system: SARS-CoV-2; experiment: microbe, parasite or virus in culture; conditions: Severe acute respiratory syndrome coronavirus 2, IC19/2020, Vero, 48 h
Description: Antiviral activity against SARS-CoV-2 IC19/2020 infected in Vero cells assessed as inhibition of viral growth incubated for 48 hrs by plaque assay

CN(C)C1CCN(Cc2ccc(NC(=O)c3ccc(OCCCCl)c([N+](=O)[O-])c3)cc2C(F)(F)F)C1 (stereo unspecified)
EC50 [1]: 9.76 µM | CC50 at 72 h [2]: 28.2 µM | selectivity ratio [3]: 2.9

CN(C)C1CN(Cc2ccc(NC(=O)c3ccc(OCC45CC6CC(CC(C6)C4)C5)c([N+](=O)[O-])c3)cc2C(F)(F)F)C1
EC50 [1]: > 3.13 µM | CC50 at 72 h [2]: 4.63 µM | selectivity ratio [3]: < 1.7

CCC(=O)Nc1cc(C(=O)Nc2ccc(CN3CCN(C)CC3)nc2)ccc1OCCCCl
EC50 [1]: 41.5 µM | CC50 at 72 h [2]: 82.7 µM | selectivity ratio [3]: 2

CN(C)C1CC(Oc2ccc(NC(=O)c3ccc(OCc4cc(C(F)(F)F)cc(C(F)(F)F)c4)c([N+](=O)[O-])c3)cc2C(F)(F)F)C1 (stereo unspecified)
EC50 [1]: 11.7 µM | CC50 at 72 h [2]: 17 µM | selectivity ratio [3]: 1

CC(C)C(=O)OC[C@H]1O[C@@H](n2ccc(NO)nc2=O)[C@H](O)[C@@H]1O [MOLNUPIRAVIR]
EC50 [1]: 0.18 µM | CC50 at 72 h [2]: 18.3 µM | selectivity ratio [3]: 102

CC(C)Oc1ccc(C(=O)Nc2ccc(CN3CCN(C)CC3)c(C(F)(F)F)c2)cc1[N+](=O)[O-]
EC50 [1]: 3.54 µM | CC50 at 72 h [2]: 19.2 µM | selectivity ratio [3]: 5.4

CN(C)C1CN(Cc2ccc(NC(=O)c3ccc(OCCF)c([N+](=O)[O-])c3)cc2C(F)(F)F)C1
EC50 [1]: 2.93 µM | CC50 at 72 h [2]: 75.2 µM | selectivity ratio [3]: 25.7

CN1CCN(Cc2ccc(NC(=O)c3ccc(OCCCCl)c([N+](=O)[O-])c3)cc2C#N)CC1
EC50 [1]: 12.1 µM | CC50 at 72 h [2]: 136 µM | selectivity ratio [3]: 11.2

CN(C)C1CC(Oc2ccc(NC(=O)c3ccc(OCCC(F)(F)F)c([N+](=O)[O-])c3)cc2C(F)(F)F)C1 (stereo unspecified)
EC50 [1]: 2.01 µM | CC50 at 72 h [2]: 31.3 µM | selectivity ratio [3]: 16

CN(C)C1CN(Cc2ccc(NC(=O)c3ccc(OCCCl)c([N+](=O)[O-])c3)cc2C(F)(F)F)C1
EC50 [1]: 2.97 µM | CC50 at 72 h [2]: 19.2 µM | CC50 [4]: 6.47 µM | selectivity ratio [3]: 6.5

CN1CCN(Cc2ccc(NC(=O)c3ccc(OCCCCl)c(S(N)(=O)=O)c3)cc2C(F)(F)F)CC1
EC50 [1]: 4.11 µM | CC50 at 72 h [2]: 40.4 µM | selectivity ratio [3]: 9.8

CN(C)C1CCN(Cc2ccc(NC(=O)c3ccc(OCCCCl)c([N+](=O)[O-])c3)cc2C(F)(F)F)CC1
EC50 [1]: 3.93 µM | CC50 at 72 h [2]: 18.5 µM | selectivity ratio [3]: 4.7

CN(C)C1CC(Oc2ccc(NC(=O)c3ccc(OCCF)c([N+](=O)[O-])c3)cc2C(F)(F)F)C1 (stereo unspecified)
EC50 [1]: 1.79 µM | CC50 at 72 h [2]: 27.1 µM | selectivity ratio [3]: 15

CN1CCN(CCCNC(=O)C2CN(Cc3ccc(NC(=O)c4ccc(OCCCCl)c([N+](=O)[O-])c4)cc3C(F)(F)F)C2)CC1
EC50 [1]: 18.6 µM | CC50 at 72 h [2]: 59.1 µM | selectivity ratio [3]: 3.2

CN1CCN(Cc2ccc(NC(=O)c3ccc(OCCCl)c([N+](=O)[O-])c3)cc2C(F)(F)F)CC1
EC50 [1]: 3.73 µM | CC50 at 72 h [2]: 13 µM | selectivity ratio [3]: 3.5

COc1ccc(C(=O)Nc2ccc(CN3CCN(C)CC3)c(C(F)(F)F)c2)cc1S(N)(=O)=O
EC50 [1]: 19.9 µM | CC50 at 72 h [2]: 123 µM | selectivity ratio [3]: 6.17

COc1ccc(C(=O)Nc2ccc(CN3CC(N(C)C)C3)c(C(F)(F)F)c2)cc1[N+](=O)[O-]
EC50 [1]: 12.1 µM | CC50 at 72 h [2]: > 200 µM | selectivity ratio [3]: > 17

O=C(Nc1ccc(CN2CC(C(=O)O)C2)c(C(F)(F)F)c1)c1ccc(OCCCCl)c([N+](=O)[O-])c1
EC50 [1]: > 66.7 µM | CC50 at 72 h [2]: > 200 µM

CN(C)C1CC(Oc2ccc(NC(=O)c3ccc(OCC4CC4)c([N+](=O)[O-])c3)cc2C(F)(F)F)C1 (stereo unspecified)
EC50 [1]: 1.24 µM | CC50 at 72 h [2]: 8.51 µM | selectivity ratio [3]: 7

CCOc1ccc(C(=O)Nc2ccc(OC3CC(N(C)C)C3)c(C(F)(F)F)c2)cc1[N+](=O)[O-] (stereo unspecified)
EC50 [1]: 3.09 µM | CC50 at 72 h [2]: 55.4 µM | selectivity ratio [3]: 17.9

CN1CCN(Cc2ccc(NC(=O)c3ccc(OCCCCl)c(F)c3)cc2C(F)(F)F)CC1
EC50 [1]: 5.34 µM | CC50 at 72 h [2]: 13.4 µM | selectivity ratio [3]: 3

CN(C)C1CC(Oc2ccc(NC(=O)c3ccc(OCCCl)c([N+](=O)[O-])c3)cc2C(F)(F)F)C1 (stereo unspecified)
EC50 [1]: 1.09 µM | CC50 at 72 h [2]: 9.94 µM | selectivity ratio [3]: 9.1

COc1ccc(C(=O)Nc2ccc(OC3CC(N(C)C)C3)c(C(F)(F)F)c2)cc1[N+](=O)[O-] (stereo unspecified)
EC50 [1]: 19.5 µM | CC50 at 72 h [2]: 139 µM | selectivity ratio [3]: 7

CN(C)C1CC(Oc2ccc(NC(=O)c3ccc(OCC45CC6CC(CC(C6)C4)C5)c([N+](=O)[O-])c3)cc2C(F)(F)F)C1 (stereo unspecified)
EC50 [1]: > 1.56 µM | CC50 at 72 h [2]: 2.51 µM | selectivity ratio [3]: < 1.7

CN(C)C1CN(Cc2ccc(NC(=O)c3ccc(OCC(F)F)c([N+](=O)[O-])c3)cc2C(F)(F)F)C1
EC50 [1]: 4.51 µM | CC50 at 72 h [2]: 34.1 µM | selectivity ratio [3]: 8

CC1CN(Cc2ccc(NC(=O)c3ccc(OCCCCl)c([N+](=O)[O-])c3)cc2C(F)(F)F)CC(C)O1 (stereo unspecified)
EC50 [1]: 2.49 µM | CC50 at 72 h [2]: 4.69 µM | selectivity ratio [3]: 2

CN1CCN(Cc2ccc(NC(=O)c3ccc(OCCF)c([N+](=O)[O-])c3)cc2C(F)(F)F)CC1
EC50 [1]: 2.64 µM | CC50 at 72 h [2]: 24.5 µM | selectivity ratio [3]: 9

CC1CC(C)CN(CCCNC(=O)C2CN(Cc3ccc(NC(=O)c4ccc(OCCCCl)c([N+](=O)[O-])c4)cc3C(F)(F)F)C2)C1 (stereo unspecified)
EC50 [1]: 3.18 µM | CC50 at 72 h [2]: 14.9 µM | selectivity ratio [3]: 4.7

COc1ccc(C(=O)Nc2ccc(CN3CCN(C)CC3)c(C(F)(F)F)c2)cc1[N+](=O)[O-]
EC50 [1]: 2.81 µM | CC50 at 72 h [2]: 30.4 µM | selectivity ratio [3]: 10.8

CN1CCN(Cc2ccc(NC(=O)c3ccc(OO)c([N+](=O)[O-])c3)cc2C(F)(F)F)CC1
EC50 [1]: 26.2 µM | CC50 at 72 h [2]: > 200 µM | selectivity ratio [3]: > 8

CN1CCN(Cc2ccc(NC(=O)c3ccc(F)c(C(F)(F)F)c3)cc2C(F)(F)F)CC1
EC50 [1]: 4.15 µM | CC50 at 72 h [2]: 14.5 µM | selectivity ratio [3]: 3

CCC(=O)Nc1cc(C(=O)Nc2ccc(CN3CCN(C)CC3)c(C(F)(F)F)c2)ccc1OCCCCl
EC50 [1]: 5.74 µM | CC50 at 72 h [2]: 27.1 µM | selectivity ratio [3]: 4.73

CN1CCN(Cc2ccc(NC(=O)c3ccc(OCCCCl)c(C(F)(F)F)c3)cc2C(F)(F)F)CC1
EC50 [1]: 2.94 µM | CC50 at 72 h [2]: 6.2 µM | selectivity ratio [3]: 2

CN(C)C1CC(Oc2ccc(NC(=O)c3ccc(O)c([N+](=O)[O-])c3)cc2C(F)(F)F)C1 (stereo unspecified)
EC50 [1]: 27.2 µM | CC50 at 72 h [2]: 186 µM | selectivity ratio [3]: 7

C=CCOc1ccc(C(=O)Nc2ccc(CN3CC(N(C)C)C3)c(C(F)(F)F)c2)cc1[N+](=O)[O-]
EC50 [1]: 7.61 µM | CC50 at 72 h [2]: 28.1 µM | selectivity ratio [3]: 4

CN(C)C1CN(Cc2ccc(NC(=O)c3ccc(OCC4CC4)c([N+](=O)[O-])c3)cc2C(F)(F)F)C1
EC50 [1]: 1.01 µM | CC50 at 72 h [2]: 14.6 µM | selectivity ratio [3]: 14.5

CCOc1ccc(C(=O)Nc2ccc(CN3CC(N(C)C)C3)c(C(F)(F)F)c2)cc1[N+](=O)[O-]
EC50 [1]: 1.85 µM | CC50 at 72 h [2]: > 200 µM | Kd [5]: 17.1 µM | selectivity ratio [3]: > 108

CN1CCN(Cc2ccc(NC(=O)c3ccc(OCCCF)c([N+](=O)[O-])c3)cc2C(F)(F)F)CC1
EC50 [1]: 2.45 µM | CC50 at 72 h [2]: 17.8 µM | selectivity ratio [3]: 7

CN1CCN(Cc2ccc(NC(=O)c3ccc(OCCCCl)c([N+](=O)[O-])c3)cn2)CC1
EC50 [1]: 19.2 µM | CC50 at 72 h [2]: 43.7 µM | selectivity ratio [3]: 2.3

CN1CCN(Cc2ccc(NC(=O)c3ccc(OCCCCl)c([N+](=O)[O-])c3)cc2C(F)(F)F)CC1
EC50 [1]: 2.47 µM | CC50 at 72 h [2]: 15 µM | selectivity ratio [3]: 6.1

Cc1ccc(NC(=O)c2ccc(CN3CCN(C)CC3)cc2)cc1Nc1nc(-c2cccnc2)cs1 [MASITINIB]
EC50 [6]: 2.1 µM

COc1ccc(C(=O)Oc2cc(OC)c(OC)c(OC)c2)cc1NC(=O)C(C)Br (stereo unspecified)
CC50 [7]: 3.64 µM

CN(C)C1CN(Cc2ccc(NC(=O)c3ccc(OCc4cc(C(F)(F)F)cc(C(F)(F)F)c4)c([N+](=O)[O-])c3)cc2C(F)(F)F)C1
EC50 [1]: > 3.13 µM | CC50 at 72 h [2]: 5.07 µM | selectivity ratio [3]: < 1.7

CCC(=O)Nc1cc(C(=O)Nc2ccc(CN3CC(N(C)C)C3)c(C(F)(F)F)c2)ccc1OCCCCl
EC50 [1]: 22.2 µM | CC50 at 72 h [2]: 96.2 µM | selectivity ratio [3]: 4.3

Cc1ccc(NC(=O)c2ccc(OCCCCl)c([N+](=O)[O-])c2)cc1C(F)(F)F
EC50 [1]: 3.83 µM | CC50 at 72 h [2]: 82.4 µM | selectivity ratio [3]: 21

CN(C)C1CCN(Cc2ccc(NC(=O)c3ccc(OCC4CC4)c([N+](=O)[O-])c3)cc2C(F)(F)F)CC1
EC50 [1]: 1.24 µM | CC50 at 72 h [2]: 14.2 µM | selectivity ratio [3]: 11

CN1CCN(Cc2ccc(NC(=O)c3ccc(OCCCCl)c(S(=O)(=O)O)c3)cc2C(F)(F)F)CC1
EC50 [1]: 36.8 µM | CC50 at 72 h [2]: > 200 µM | selectivity ratio [3]: 7

CN(C)C1CN(Cc2ccc(NC(=O)c3ccc(OCCCCl)c([N+](=O)[O-])c3)cc2C(F)(F)F)C1
EC50 [1]: 8.64 µM | CC50 at 72 h [2]: 49.8 µM | selectivity ratio [3]: 6

CN(C)C1CC(Oc2ccc(NC(=O)c3ccc(OCC(F)F)c([N+](=O)[O-])c3)cc2C(F)(F)F)C1 (stereo unspecified)
EC50 [1]: 2.58 µM | CC50 at 72 h [2]: 34.3 µM | selectivity ratio [3]: 13

CN1CCN(Cc2ccc(NC(=O)c3ccc(OCCCCl)c(NS(C)(=O)=O)c3)cc2C(F)(F)F)CC1
EC50 [1]: 12.8 µM | CC50 at 72 h [2]: 38.5 µM | selectivity ratio [3]: 3

O=C(Nc1ccc([N+](=O)[O-])cc1Cl)c1cc(Cl)ccc1O [NICLOSAMIDE]
EC50 [8]: 0.4 µM

COc1ccc(C(=O)Nc2ccc(OC3CC(N(C)C)C3)cc2C(F)(F)F)cc1[N+](=O)[O-] (stereo unspecified)
EC50 [1]: 28.6 µM | CC50 at 72 h [2]: 99.5 µM | selectivity ratio [3]: 3
